Test results taken from patent US20220175889A1, “NEW DOSAGE REGIMEN FOR INHALED VASOACTIVE INTESTINAL POLYPEPTIDE” (priority 2020, published 2022).

How the values were obtained:
[1] = tested on: histamine-induced bronchoconstriction; conditions: single 375 μg inhaled; cited from earlier work
[2] = format: physicochemical; conditions: M-neb mobile mesh nebulizer MN-300/9
[3] = tested on: patients with COVID-19 pulmonary involvement

CC[C@H](C)[C@H](NC(=O)[C@H](CO)NC(=O)[C@H](CC(N)=O)NC(=O)[C@H](CC(C)C)NC(=O)[C@H](Cc1ccc(O)cc1)NC(=O)[C@H](CCCCN)NC(=O)[C@H](CCCCN)NC(=O)[C@@H](NC(=O)[C@H](C)NC(=O)[C@H](CCSC)NC(=O)[C@H](CCC(N)=O)NC(=O)[C@H](CCCCN)NC(=O)[C@H](CCCNC(=N)N)NC(=O)[C@H](CC(C)C)NC(=O)[C@H](CCCNC(=N)N)NC(=O)[C@@H](NC(=O)[C@H](Cc1ccc(O)cc1)NC(=O)[C@H](CC(N)=O)NC(=O)[C@H](CC(=O)O)NC(=O)[C@@H](NC(=O)[C@H](Cc1ccccc1)NC(=O)[C@@H](NC(=O)[C@H](C)NC(=O)[C@H](CC(=O)O)NC(=O)[C@H](CO)NC(=O)[C@@H](N)Cc1c[nH]cn1)C(C)C)[C@@H](C)O)[C@@H](C)O)C(C)C)C(=O)N[C@@H](CC(C)C)C(=O)N[C@@H](CC(N)=O)C(N)=O [Aviptadil]
Protection against histamine-induced bronchoconstriction [1]: the activity could not be shown
Side effects [1]: no side effects were reported
Mass Median Aerodynamic Diameter [2]: 4±0.16 μm
Tolerability ([3]; human, in vivo): well tolerated
Distribution of AEs (%) ([3]; share of the 47 adverse events observed in Treatment Group, 16 patients treatment, 13 placebo): 40.43%
Entering Intensive Care (%) ([3]; treatment group, Age >= 60): 25%
